Data on six compounds can be found in publication PMC9457600, “Synthesis, Leishmanicidal, Trypanocidal, Antiproliferative Assay and Apoptotic Induction of (2-Phenoxypyridin-3-yl)naphthalene-1(2H)-one Derivatives” (Molecules, 2022).

Data set [1] deals with promastigotes of Leishmania (V.) braziliensis strain MHOM/CO/87/UA301. Put plainly: MTT viability of L. braziliensis promastigotes. It counts as cell-based.
Experimental: Promastigotes of Leishmania (V.) braziliensis strain MHOM/CO/87/UA301 were isolated from footpad lesions in Balb/C mice previously infected. In the process of maintenance and differentiation of the parasites, the LTI medium (tryptose 15 g/L, yeast extract 5 g/L, liver extract 2 g/L, hemin-NaOH 0.02 g/L, glucose 4 g/L, NaCl 9 g/L, KCl 0.4 g/L Na2HPO4, 7.5 g/L at pH 7.4) supplemented with 10% fetal calf serum and maintained at 29 °C was used.
Briefly, 96-well plates were used, where 2 × 10^6 parasites/mL were seeded. A concentration of 50 μM was used for each compound and an incubation time of 96 h at 29 °C. 3-(4,5-dimethylthiazol-2-yl)-2,5-diphenyl tetrazolium bromide (MTT) 1 μg/mL was added and incubated in darkness for 4 h, acidic isopropanol (4N) was added and the plate was read at 570 nm in a spectrophotometer Synergy HT (Biotek). Miltefosine was used as a reference drug. The EC50 calculation of the selected compound was performed using growth curves. Direct counting was used to monitor the proliferation of parasites, three independent experiments were performed for each concentration of the compounds evaluated. The in vitro evaluations of compounds toxicity by MTT in VERO and BMDM cells follow a methodology described above with some modifications [60].
Data set [2] concerns HCT-116. The data set is described as follows: MTS antiproliferative assay HCT116. It counts as cell-based. Particulars: Homo sapiens, 72 h of incubation. The text has this: (§1) The cell lines used were acquired from the American Type Culture Collection (ATCC), CCRF-CEM (T lymphoblastic leukemia), K562 ([…]), U2OS (osteosarcoma), HCT116 (colon carcinoma), A549 (lung adenocarcinoma) and HCT116p53−/− (HCT116 cell line mutated in p53) Horizon Discovery Ltd., (Waterbeach, Cambridge, United Kingdom).
(§2) In our laboratory, IMTM, we generated the daunorubicin-resistant subline of CCRF-CEM cells (CEM-DNR bulk) and paclitaxel-resistant subline K562-TAX, as described previously. […] Both ABC transporters are involved in drug resistance. As a control, human fibroblasts MRC-5 and BJ cell lines were used. […] Adherent cells were passaged using PBS containing 0.25% trypsin plus 0.01% EDTA (ethylenediamine tetraacetic acid) every 2–3 days.
(§3) The antiproliferative activity of compounds was determined using a standard 3-(4,5-dimethylthiazol-2yl)-5-(3-carboxymethoxyphenyl)-2-(4-sulfophenyl)-2H-tetrazolium (MTS) reduction assay on a robotic high throughput screening platform (HighResBio, Boston, MA, USA) following treatment of cells for 3–7 days. The IC50 values were calculated from the appropriate dose–response curves with Dotmatics software (San Diego, CA, USA).
A general note: Tetrazolium assays rely on reduction of a dye to a coloured formazan, in cell work by metabolically active cells.

In data set [3] the test system is VERO cells. Put plainly: MTT cytotoxicity on VERO cells. It counts as cell-based, African green monkey. To be noted: Chlorocebus sabaeus, 72 h. The method, then:
(§4) Vero cells were derived from the kidney of an African green monkey, cells were maintained in Dulbecco’s Modified Eagle’s Medium (DMEM), supplemented with 10% heat-inactivated FBS and penicillin-streptomycin solution 1% at 37 °C, 5% CO2 atmosphere and > 95% humidity. We evaluated through a colorimetric method the effect of compounds 8–23 on the promastigotes of L. brasiliensis. Briefly, 96-well plates were used, where 2 × 10^6 parasites/mL were seeded. A concentration of 50 μM was used for each compound and an incubation time of 96 h at 29 °C. 3-(4,5-dimethylthiazol-2-yl)-2,5-diphenyl tetrazolium bromide (MTT) 1 μg/mL was added and incubated in darkness for 4 h, acidic isopropanol (4N) was added and the plate was read at 570 nm in a spectrophotometer Synergy HT (Biotek). Miltefosine was used as a reference drug. The EC50 calculation of the selected compound was performed using growth curves. Direct counting was used to monitor the proliferation of parasites, three independent experiments were performed for each concentration of the compounds evaluated. The in vitro evaluations of compounds toxicity by MTT in VERO and BMDM cells follow a methodology described above with some modifications. The selectivity index was calculated with SI = CC50/EC50, where CC50 was the maximum concentration range of compounds 10, 21–23 used to evaluate cytotoxicity in VERO and BMDM cells. The trypanocidal activity of compounds 8–23 was evaluated on the viability of T. cruzi epimastigotes through a colorimetric method adapted with minor modifications. 2 × 10^6 parasites/mL were seeded in a 96-well plate, adding 50 μM of each derivative dissolved in DMSO (final concentration remained below 1%). The plate was incubated for 96 h at 29 °C. Then, 1 μg/mL of 3-(4,5-dimethylthiazol-2-yl)-2,5-diphenyl tetrazolium bromide (MTT) was added and incubated in darkness for 4 h. After this time, acidic isopropanol (4N) was added and the plate was read at 570 nm in a spectrophotometer Synergy HT (Biotek). Benznidazole was used as a reference drug. The in vitro evaluations of compounds toxicity by MTT in VERO and BMDM cells follow a methodology described above with some modifications. Cells were counted in suspension and seeded at 20 × 10^3 cells/well. The test was carried out in triplicate on 96-well microplates in different concentrations: 50 μM, 100 μM, 200 μM and 300 μM, untreated cells and reference drug (benznidazole) controls.

Data set [4] has as its system K562. Put plainly: MTS antiproliferative assay K562. In kind it is cell-based, human. To be noted: Homo sapiens, K562, 72 h, 72 h of incubation.
From the text: as §1, §2, §3

In data set [5] the test system is BJ. Put plainly: MTS assay on non-malignant BJ. In kind it is cell-based. To be noted: noncancerous human cell line. The method, then:
as §2, §3

In data set [6] the test system is CCRF-CEM. The data set is described as follows: MTS antiproliferative assay CCRF-CEM. In kind it is cell-based. Particulars: Homo sapiens, 72 h of incubation.
From the text: as §1, §2, §3

Data set [7] has as its system epimastigotes of Trypanosoma cruzi strain MHOM/VE/92/YBM. The data set is described as follows: MTT viability of T. cruzi epimastigotes. It counts as cell-based. To be noted: for EC50: 72 h, epimastigotes.
For data set [8], the system named is U2OS. The data set is described as follows: MTS antiproliferative assay U2OS. To be noted: Homo sapiens, 72 h of incubation. It counts as cell-based.
From the text: as §1, §2, §3

Data set [9] has as its system BMDM macrophages. Put plainly: MTT cytotoxicity on BMDM macrophages. It counts as cell-based. Particulars: Mus musculus, 72 h.
From the text: as §4, with “T. cruzi epimastigotes MHOM/VE/92/YBM venezuelan strain” for “Vero cells”, “used to test” for “derived from”, “anti T. cruzi in vitro studies. The strain was” for “kidney of an African green monkey, cells were”, “a modified LIT medium” for “Dulbecco’s Modified Eagle’s Medium (DMEM), supplemented”, “fetal bovine serum (FBS). Mouse bone marrow was used to obtain BMDM macrophages. Mouse fibroblast-conditioned medium L-929 was used for the differentiation” for “heat-inactivated FBS”, “maintenance of BMDM macrophages.” for “penicillin-streptomycin solution 1% at 37 °C, 5% CO2 atmosphere and > 95% humidity.”

In data set [10] the test system is A549. The data set is described as follows: MTS antiproliferative assay A549. It counts as cell-based, human. To be noted: Homo sapiens, A549, 72 h, 72 h of incubation.
From the text: as §1, §2, §3

The subject of data set [11] is MRC-5. The data set is described as follows: MTS assay on non-malignant MRC-5. It counts as cell-based. To be noted: MRC5; noncancerous human cell line. The method, then: as §2, §3
The subject of data set [12] is HCT116p53−/−. The data set is described as follows: MTS antiproliferative assay HCT116p53-/-. It counts as cell-based. To be noted: Homo sapiens; 72 h of incubation.
From the text: as §1, §2, §3

In data set [13] the test system is CEM-DNR. The data set is described as follows: MTS antiproliferative assay CEM-DNR. It counts as cell-based. To be noted: Homo sapiens, 72 h of incubation, daunorubicin-resistant.
From the text: as §1, §2, §3

The test system of data set [14] is K562-TAX. Put plainly: MTS antiproliferative assay K562-TAX. It counts as cell-based, human. Particulars: Homo sapiens, K562-Tax, 72 h, 72 h of incubation; paclitaxel-resistant.
From the text: as §1, §2, §3

In the case of `COc1cccc2c1CC/C(=C\c1cccnc1Oc1ccc(Cl)cc1)C2=O` [Compound 21, (E)-2-{[2-(4-Chlorophenoxy)pyridin-3-yl]methylene}-3,4-dihydro-5-methoxynaphthalen-1(2H)-one], the EC50 (commonly the concentration giving half of the maximal effect) is 9.24 ± 1 µM in data set [1] (72 h, promastigotes); 103 ± 15 µM in [3]; below 60 µM in [7] (Trypanosoma cruzi); 35.5 ± 10 µM in [7]; above 1000 µM in data set [9]. Further, the IC50 (commonly the midpoint of a concentration-inhibition curve) is 38.1 ± 5.44 µM in data set [2]; 32.7 ± 3.67 µM in data set [4]; above 50 µM in data set [5]; 10.4 ± 2.46 µM in data set [6]; 46.8 ± 4.26 µM in [8]; 46.9 ± 4.02 µM in data set [10]. The IC50 in data set [11] is above 50 µM; in [12], 31.1 ± 4.45 µM; in data set [13], 35.8 ± 4.25 µM; in data set [14], 23.6 ± 8.79 µM.

For `COc1cccc2c1CC/C(=C\c1cccnc1Oc1ccccc1)C2=O` [Compound 9, (E)-3,4-Dihydro-5-methoxy-2-[(2-phenoxypyridin-3-yl)methylene]naphthalen-1(2H)-one], the EC50 in data set [1] (72 h, promastigotes) was at least 60 µM; in [1] (promastigotes, 72 h) it was above 60 µM; in [3], below 100 µM; in [7] (Trypanosoma cruzi) it was above 60 µM; in data set [9], above 1000 µM. Besides, the IC50 is 24.8 ± 3.77 µM in data set [2]; 19.6 ± 3.67 µM in data set [4]; above 50 µM in data set [5]; 6.15 ± 0.84 µM in data set [6]; 19.6 ± 3.65 µM in [8]; 30 ± 5.83 µM in [10]. Further, the IC50 in [11] is above 50 µM; in data set [12], 20.2 ± 3.1 µM; in [13], 26.3 ± 7.95 µM; in data set [14] it was 24.1 ± 6.02 µM.

Take `CCCCCCCCCCCCCCCCOP(=O)([O-])OCC[N+](C)(C)C` [Mil, miltefosine, reference compound]: the EC50 in [1] (72 h, promastigotes) came out at 25 ± 1.4 µM; in [9], 125 ± 4.7 µM. The “SIB/Lb selectivity index on L. braziliensis/BMDM” value in data set [1] (SI = CC50/EC50) is given as 5.

For `O=C1/C(=C/c2cccnc2Oc2ccccc2)CCc2ccccc21` [Compound 8, (E)-3,4-Dihydro-2-[(2-phenoxypyridin-3-yl)methylene]naphthalen-1(2H)-one], the EC50 was at most 60 µM in [1] (72 h, promastigotes); 57.6 ± 1.62 µM in data set [1] (promastigotes, 72 h); above 100 µM in [3]; above 60 µM in data set [7] (Trypanosoma cruzi); above 1000 µM in [9]. For the same compound, the IC50 is above 50 µM in data set [2]; above 50 µM in [4]; above 50 µM in data set [5]; 4.15 ± 0.74 µM in data set [6]; above 50 µM in [8]; above 50 µM in [10]. Further, the IC50 in [11] was above 50 µM; in data set [12], above 50 µM; in [13], 38.2 ± 6.26 µM; in [14], 20 ± 2.16 µM.

Take `O=C(Cn1ccnc1[N+](=O)[O-])NCc1ccccc1` [Bnz, benznidazole, reference compound]: the figures for the EC50 in data set [3] and in [7] (Trypanosoma cruzi) were 120 ± 2.3 µM and 30 ± 0.7 µM, respectively. In addition, in data set [7] (SI = CC50/EC50), the “SIV/Tc selectivity index on T. cruzi/VERO” value was 4.

In the case of `COc1ccc2c(c1)C(=O)/C(=C/c1cccnc1Oc1ccc(Br)cc1)CC2` [Compound 19, (E)-2-{[2-(4-Bromophenoxy)pyridin-3-yl]methylene}-3,4-dihydro-7-methoxynaphthalen-1(2H)-one], the melting point (usually the temperature of the solid-liquid transition) lay within 144 to 146 °C. This compound also yielded an EC50 in data set [1] (72 h, promastigotes) of at most 60 µM. The compound further registered an EC50 in [1] (promastigotes, 72 h) of 44.6 ± 1.15 µM. Further, the IC50 in data set [2] is above 50 µM. The same compound displayed an IC50 in [4] of 43 ± 5.1 µM. This compound registered an IC50 in data set [5] above 50 µM. For the same compound, in data set [6], the IC50 was 12.9 ± 2.43 µM. The EC50 in data set [7] (Trypanosoma cruzi) was above 100 µM. The same compound showed an IC50 in data set [8] above 50 µM. This compound also came in with an IC50 in data set [10] above 50 µM. Further, the IC50 in data set [11] is above 50 µM. The compound also gave an IC50 in [12] above 50 µM. In data set [13], the IC50 was 20 ± 3.99 µM. In addition, in data set [14], the IC50 stood at 4.17 ± 2.93 µM.
